What all share (assay): NCI-60 cell line screen, 48 h
Assay [1] relates to COLO 205 colon.
The test system of assay [2] is HOP-62 NSCLC.
The test system of assay [3] is HOP-92 NSCLC.
Assay [4] concerns MOLT-4 leukemia.
The test system of assay [5] is NCI-H226 lung.
Assay [6] concerns OVCAR-3 ovarian.
Assay [7] relates to OVCAR-8 ovarian.
For assay [8], the system named is SF-268 CNS.
Assay [9] concerns SK-OV-3 ovarian.
Assay [10] concerns MDA-MB-231 breast.

Several values for one entry are separate records, joined by “and”; a condition that tells them apart may be missing. Equal values may be shown once.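 How tested: cells in 96-well plates exposed to compound for 48 hours at five concentrations. GI50 is the concentration that inhibits growth by half. TGI is the concentration that stops growth completely.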

Turning to `CN(C)CC(C)(C)C(=O)/C=C/c1ccccc1`, the TGI in assay [1] was determined as 26.2 µM; in assay [2] it was 96.3 µM; in [3], 24.5 µM; in [4], 60.4 µM; in assay [5] it was 29.3 µM; in assay [6], 40.5 µM. Moreover, the TGI in assay [7] is above 100 µM.
On to `Cc1cc(N)c2cc(NC(=O)CCCCCCCCC(=O)Nc3ccc4nc(C)cc(N)c4c3)ccc2n1`, for which the TGI in [1] was above 100 µM; in assay [2] it was above 100 µM; in assay [3], 80.3 µM; in [4], above 39.8 µM; in [5], 56.3 µM; in assay [6], above 100 µM. Moreover, the TGI in assay [7], in [8] and in assay [9] was above 100 µM each time.
For `C[S+](C)C1(c2ccccc2)C(=O)c2ccccc2C1=O`, the TGI in [1], in [2], in [3], in assay [4], in assay [5] and in assay [6] was above 100 µM in each case. Also, the TGI in [7], in assay [8] and in assay [9] was above 100 µM each time.
`CC1CC/C(=C\c2ccc(F)cc2)C2=C1C(c1ccc(F)cc1)NC(=S)N2` (stereo unspecified): the TGI in assay [1], in assay [10], in assay [4], in [5], in [6] and in assay [7] was above 100 µM throughout. Moreover, the TGI in assay [8] and in assay [9] was above 100 µM throughout.
With `C[C@@H]1CC(=O)[C@@]2(C)[C@](O)(CCC3O[C@]32C)[C@@]12CC(c1ccoc1)OC2=O` (stereo partly specified), the TGI in assay [1] is above 100 µM; in [10], above 100 µM; in [4], 58.5 µM; in [5] it was above 100 µM; in [6], above 100 µM; in assay [7] it was above 100 µM. Besides, the TGI in [9] is above 100 µM.
For `Cc1cccc(-c2cc(=O)c3cc(C)cnc3[nH]2)c1`, the TGI is 0.382 µM in assay [1]; above 100 µM in assay [2]; above 100 µM in assay [3]; above 100 µM in assay [4]; 2.79 µM in assay [5]; above 100 µM in [8]. In assay [9], the TGI was above 29.6 µM.
In the case of `O=S1(=O)OCCOS(=O)(=O)C1S(=O)(=O)c1cccc2ccccc12`, the TGI in assay [1], in assay [2], in assay [3], in assay [10], in [4] and in assay [6] was above 100 µM throughout. The same compound registered a TGI in assay [7] above 100 µM.
For the compound `COc1cccc2c1C(=O)c1c(O)c3c(c(O)c1C2=O)C[C@@](O)(C(=O)CO)CC3OC1CC(NCCCCC(OC(C)=O)OC(C)=O)C(O)C(C)O1` (stereo partly specified), the GI50 was 0.00248 µM in assay [2]; 0.00286 µM in assay [3]; 0.000378 µM in assay [4]; 0.00179 µM in assay [7]; 0.00567 µM in [9]. The TGI in assay [3] was 0.00682 µM and 0.0079 µM; in [4] it was 0.00909 µM and 0.00236 µM; in assay [5], 0.00568 µM; in assay [7], 0.0614 µM; in assay [9], above 1 µM.
Consider `Cc1cnc2cc(Cl)ccc2c1SCC(=O)O`, for which the TGI in assay [2], in assay [3], in assay [10], in assay [4], in assay [5] and in [6] was above 100 µM each time. Moreover, the TGI in assay [7] and in assay [8] was above 100 µM each time.
On to `Cc1cc(S(=O)(=O)Nc2n[nH]c(N)n2)c(S)cc1Cl`, for which the TGI in assay [1], in [2], in assay [10], in assay [4], in assay [5] and in assay [6] was above 10 µM in each case. Further, the TGI in assay [7], in [8] and in assay [9] was above 10 µM throughout.
For `CCOC(=O)c1sc2[n+](c1C)C(=O)/C(=C/c1ccccc1Cl)S2`, the TGI is 9.85 µM in [1]; 60.9 µM in assay [2]; above 27.8 µM in assay [10]; 15 µM in [4]; 23.1 µM in [5]; 21.1 µM in assay [6]. For the same compound, the TGI in [7] is 35 µM; in [8], above 53.5 µM; in assay [9], above 69.2 µM.
As for `c1ccc(C2C3=C(CCCC3)Nc3nnnn32)cc1` (stereo unspecified), the TGI in assay [1], in [2], in assay [10], in assay [4], in assay [6] and in assay [7] was above 100 µM in each case. Further, the TGI in [8] was 90.8 µM; in assay [9], above 100 µM.
Regarding `CN(C)CCSc1nccc(-c2ccc(-c3ccnc(SCCN(C)C)n3)s2)n1`, the TGI in assay [1] turned out to be 21.7 µM; in assay [2], 30.6 µM; in assay [3], 28.1 µM; in assay [4] it was 10 µM; in assay [5], 27.7 µM; in assay [6], 31.2 µM. For the same compound, the TGI was found to be 31.4 µM in [7], 22 µM in assay [8] and 47.2 µM in assay [9].
With `COc1ccc(Cn2nc(OCc3ccccc3)c3cc([N+](=O)[O-])ccc32)cc1`, the TGI in [2], in assay [10], in assay [4], in assay [5], in assay [6] and in [7] was above 100 µM in each case. For the same compound, the TGI in assay [8] and in assay [9] was above 100 µM each time.
As for `O=C(c1cccs1)N(C(=O)N1CCCCC1)c1ccccc1`, the TGI in assay [1], in assay [10], in [4], in [5], in assay [6] and in assay [7] was above 100 µM in each case. In addition, the TGI in [8] and in assay [9] was above 100 µM each time.
`O=c1cc(-c2ccccc2)[nH]c2c(F)ccc(F)c12`: the TGI in [1], in [2], in assay [3], in assay [4], in [5] and in assay [7] was above 100 µM each time. In addition, the TGI in assay [8] and in [9] was above 100 µM each time.
Regarding `COc1cc(C)c(S(=O)(=O)N(CCCN)OCCCN)c(C)c1C`, the TGI in [1] was 41.2 µM; in assay [2] it was above 100 µM; in assay [10] it was 80.8 µM; in assay [4], 31.4 µM; in assay [5], above 100 µM; in assay [6], above 100 µM. Besides, the TGI in [7], in assay [8] and in assay [9] was above 100 µM each time.
As for `COc1ccc(OC)c([N+](=O)[O-])c1-c1nc2sc(C)cn2c1/C=N/N=C(N)N`, the TGI in assay [2] was above 100 µM; in assay [3], 47.8 µM; in assay [10], 84.4 µM; in assay [5], 92.7 µM; in [6], 85.6 µM; in [7], 76.8 µM. The compound also had a TGI in [8] above 100 µM.
Take `N#Cc1c(NC(=S)Nc2ccccc2)sc2c1CCCC2`: the TGI in [1], in assay [2], in [10], in assay [4], in assay [5] and in [6] was above 100 µM throughout. Moreover, the TGI in [7] and in assay [8] was above 100 µM in each case.
Consider `C=C1CC2C[C@H](OS(=O)(=O)c3ccc(C)cc3)C(C1)N2C` (stereo partly specified), for which the TGI in assay [1], in assay [2], in assay [10], in assay [4], in assay [5] and in [6] was above 100 µM each time. The TGI in assay [7], in assay [8] and in assay [9] was above 100 µM throughout.
`CCN(CC)CCC1(C(=O)OC)SCCc2ccc(C)cc21` (stereo unspecified): the TGI in assay [1], in assay [2], in [3], in assay [4], in assay [5] and in [6] was above 100 µM each time. The TGI in assay [7], in assay [8] and in assay [9] was above 100 µM throughout.
Take `CC(=O)c1c2c(cc3c1CCC3)CCC2`: the TGI in assay [1], in assay [2], in assay [10], in assay [4], in assay [5] and in assay [6] was above 100 µM in each case. For the same compound, the TGI in [7], in [8] and in [9] was above 100 µM in each case.
On to `CCC(C)Cn1c(C)nc2c1C(=O)c1ccccc1C2=O` (stereo unspecified), for which the TGI in [1] was 87.5 µM; in [2], above 100 µM; in assay [3] it was 78.9 µM; in [4], above 100 µM; in [5] it was above 100 µM; in [6] it was 66.7 µM. For the same compound, the TGI in assay [7], in assay [8] and in assay [9] was above 100 µM throughout.

Values taken from PubChem BioAssay (NCI).
